The record followed here is US12398154B2, “Azaquinazoline pan-KRas inhibitors” (Mirati Therapeutics, Inc., priority 2020, dated 2025).

Each structure is given as a SMILES string.

For one assay, the system named is pERK in H460 cells. Briefly: Inhibition of KRas phosphorylation of ERK (Cisbio HTRF pERK assay). To be noted: Homo sapiens, NCI-H460, read-out: Inhibition (HTRF IC50) of KRas-mediated Phosphorylation of ERK, H460.
The next assay has as its system pERK in H358 cells. The assay is described as above. To be noted: Homo sapiens, NCI-H358, read-out: Inhibition (HTRF IC50) of KRas-mediated Phosphorylation of ERK, H358.
For another assay, the system named is pERK in A549 cells. The description is as above. Conditions: Homo sapiens, A549, read-out: Inhibition (HTRF IC50) of KRas-mediated Phosphorylation of ERK, A549.
The next assay deals with KRas G12D (Homo sapiens, UniProt P01116, G12D). Description: biochemical.
The subject of a further assay is pERK in PSN1 cells. Briefly: Inhibition of KRas phosphorylation of ERK (Cisbio HTRF pERK assay). Conditions: Homo sapiens, PSN1, 3 h, read-out: Inhibition (HTRF IC50) of KRas-mediated Phosphorylation of ERK, PSN1.
The next assay deals with pERK in H727 cells. The assay is described as above. To be noted: Homo sapiens, NCI-H727, read-out: Inhibition (HTRF IC50) of KRas-mediated Phosphorylation of ERK, H727.
The next assay has as its system pERK in HCT116 cells. Described as above. To be noted: Homo sapiens, HCT-116, read-out: Inhibition (HTRF IC50) of KRas-mediated Phosphorylation of ERK, HCT116.
A further assay concerns the target KRas G12R (Homo sapiens, UniProt P01116, G12R). Description: biochemical.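 Also: TR-FRET displacement assay of compound binding to KRas, read after one hour at room temperature, potency from a four-parameter fit of percent-of-control values.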
The subject of another assay is pERK in MKN1 cells. Description: Inhibition of KRas phosphorylation of ERK (Cisbio HTRF pERK assay). To be noted: Homo sapiens, MKN-1, 3 h, read-out: Inhibition (HTRF IC50) of KRas-mediated Phosphorylation of ERK, MKN1.
For another assay, the system named is pERK in ASPC1 cells. The assay is described as above. Conditions: Homo sapiens, ASPC1, read-out: Inhibition (HTRF IC50) of KRas-mediated Phosphorylation of ERK, AsPC-1.
Another assay addresses KRas G12V (Homo sapiens, UniProt P01116, G12V). Briefly: biochemical.

Sequence of KRas G12D (P01116 1-169 isoform P01116-2 G12D): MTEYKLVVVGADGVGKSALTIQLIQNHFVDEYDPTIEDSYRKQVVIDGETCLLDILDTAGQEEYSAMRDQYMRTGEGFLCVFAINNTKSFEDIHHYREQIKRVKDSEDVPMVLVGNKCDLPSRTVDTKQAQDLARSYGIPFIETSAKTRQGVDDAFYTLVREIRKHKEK
Sequence of KRas G12R (P01116 1-169 isoform P01116-2 G12R): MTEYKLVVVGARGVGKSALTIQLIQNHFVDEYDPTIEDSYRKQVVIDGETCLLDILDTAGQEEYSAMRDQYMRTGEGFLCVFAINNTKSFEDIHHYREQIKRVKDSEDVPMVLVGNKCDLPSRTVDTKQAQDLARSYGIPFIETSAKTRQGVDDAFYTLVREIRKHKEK
Sequence of KRas G12V (P01116 1-169 isoform P01116-2 G12V): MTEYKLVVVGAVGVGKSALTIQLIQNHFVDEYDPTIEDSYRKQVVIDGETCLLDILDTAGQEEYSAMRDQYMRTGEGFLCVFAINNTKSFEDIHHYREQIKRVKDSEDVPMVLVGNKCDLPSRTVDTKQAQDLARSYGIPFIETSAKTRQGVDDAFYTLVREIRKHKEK

`CCc1c(F)ccc2cc(O)cc(-c3ncc4c(N5CCC[C@@](C)(O)C5)nc(OC[C@]56CCCN5[C@@H](COC(=O)N(C)C)CC6)nc4c3F)c12` [Example 362, ((3R,7aR)-7a-(((7-(8-ethyl-7-fluoro-3-hydroxynaphthalen-1-yl)-8-fluoro-4-((R)-3-hydroxy-3-methylpiperidin-1-yl)pyrido[4,3-d]pyrimidin-2-yl)oxy)methyl)hexahydro-1H-pyrrolizin-3-yl)methyl dimethylcarbamate]: the IC50 amounted to 0.404 µM with pERK in H460 cells; 0.113 µM in the assay with pERK in H358 cells; 0.629 µM in the assay on pERK in A549 cells; 0.003 µM at KRas G12D; 5.13 µM with pERK in PSN1 cells; 0.313 µM in the assay with pERK in H727 cells. Also, the IC50 in the assay with pERK in HCT116 cells came to 0.763 µM; against KRas G12R, 0.004 µM; with pERK in MKN1 cells, 0.037 µM; in the assay with pERK in ASPC1 cells, 0.073 µM; at KRas G12V, 0.003 µM.

As to `CCc1c(F)ccc2cc(O)cc(-c3ncc4c(N5CCCC6(CSC6)C5)nc(OC[C@@]56CCCN5C[C@H](F)C6)nc4c3F)c12` [Example 365, 5-ethyl-6-fluoro-4-(8-fluoro-2-(((2R,7aS)-2-fluorohexahydro-1H-pyrrolizin-7a-yl)methoxy)-4-(2-thia-6-azaspiro[3.5]nonan-6-yl)pyrido[4,3-d]pyrimidin-7-yl)naphthalen-2-ol], the IC50 is 0.017 µM in the assay with pERK in H460 cells; 0.006 µM in the assay on pERK in H358 cells; 0.011 µM in the assay on pERK in A549 cells; no more than 0.002 µM on KRas G12D; 2.86 µM with pERK in PSN1 cells; 0.024 µM in the assay with pERK in H727 cells. Moreover, the IC50 was 0.077 µM in the assay with pERK in HCT116 cells; no more than 0.002 µM at KRas G12R; 0.01 µM in the assay with pERK in MKN1 cells; 0.017 µM in the assay on pERK in ASPC1 cells; no more than 0.002 µM on KRas G12V.

Turning to `C#Cc1c(F)ccc2cc(O)cc(-c3ncc4c(N5CCCC6(CC(O)C6)C5)nc(OC[C@@]56CCCN5C[C@H](F)C6)nc4c3F)c12` (stereo partly drawn) [Example 393, 6-(7-(8-ethynyl-7-fluoro-3-hydroxynaphthalen-1-yl)-8-fluoro-2-(((2R,7aS)-2-fluorohexahydro-1H-pyrrolizin-7a-yl)methoxy)pyrido[4,3-d]pyrimidin-4-yl)-6-azaspiro[3.5]nonan-2-ol], the IC50 is 0.11 µM with pERK in H460 cells; 0.02 µM in the assay with pERK in H358 cells; 0.133 µM in the assay on pERK in A549 cells; no more than 0.002 µM on KRas G12D; 0.449 µM with pERK in PSN1 cells; 0.024 µM with pERK in H727 cells. Further, the 50% inhibitory concentration (IC50) in the assay with pERK in HCT116 cells was 0.068 µM; at KRas G12R, no more than 0.002 µM; in the assay with pERK in MKN1 cells it was 0.008 µM; in the assay with pERK in ASPC1 cells, 0.068 µM; against KRas G12V, no more than 0.002 µM.

Regarding `C#Cc1c(F)ccc2cc(O)cc(-c3ncc4c(N5CCCn6nc(C(=O)N(C)C)cc6C5)nc(OC[C@@]56CCCN5C[C@H](F)C6)nc4c3F)c12` [Example 398, 5-(7-(8-ethynyl-7-fluoro-3-hydroxynaphthalen-1-yl)-8-fluoro-2-(((2R,7aS)-2-fluorohexahydro-1H-pyrrolizin-7a-yl)methoxy)pyrido[4,3-d]pyrimidin-4-yl)-N,N-dimethyl-5,6,7,8-tetrahydro-4H-pyrazolo[1,5-a][1,4]diazepine-2-carboxamide], the IC50 was 0.387 µM in the assay with pERK in H460 cells; 0.01 µM in the assay on pERK in H358 cells; 0.102 µM with pERK in A549 cells; no more than 0.002 µM against KRas G12D; 6.69 µM with pERK in PSN1 cells; 0.026 µM with pERK in H727 cells. Also, the IC50 with pERK in HCT116 cells is 0.348 µM; against KRas G12R it was no more than 0.002 µM; with pERK in MKN1 cells, 0.007 µM; in the assay on pERK in ASPC1 cells it was 0.025 µM; against KRas G12V it was no more than 0.002 µM.
